Calls of active or inactive are those of the source.
Columns and labels:
Genome polyprotein = Genome polyprotein (dengue virus type 2, UniProt P29990); assay: flavivirus cap methylation enzyme inhibition – biochemical, confirmation dose response, primary screen (AID 588689); type: functional
Major prion protein = Major prion protein (Homo sapiens, UniProt P04156); type: functional, cell-based
[1] = molecular target: Bifunctional protein GlmU (Mycobacterium tuberculosis, UniProt P9WMN3); assay: Inhibitors of Mycobacterial Glucosamine-1-phosphate acetyl transferase (GlmU). Secondary screen.; parameters: species or system Mycobacterium tuberculosis H37Rv
Vero [2] = assay: cells; type: functional, cell-based; details: Chlorocebus sabaeus
Vero [3] = assay: cells; type: functional; details: Chlorocebus sabaeus
Vero [4] = assay: viability of Vero cells under compound – cytotoxicity control for flavivirus capping enzyme inhibitors (AID 588742); type: functional; details: Chlorocebus sabaeus
Beta-arrestin-1 = Beta-arrestin-1 (Homo sapiens, UniProt P49407); assay: beta-arrestin/AP2 interaction blockers, potency – biochemical, cherry pick 1, beta2-adaptin appendage, flow cytometry, dose response (AID 588783); type: functional
Protein skinhead-1 = molecular target: T1, Protein skinhead-1 (Caenorhabditis elegans, UniProt P34707); type: functional
T1 sequence (P34707 whole entry): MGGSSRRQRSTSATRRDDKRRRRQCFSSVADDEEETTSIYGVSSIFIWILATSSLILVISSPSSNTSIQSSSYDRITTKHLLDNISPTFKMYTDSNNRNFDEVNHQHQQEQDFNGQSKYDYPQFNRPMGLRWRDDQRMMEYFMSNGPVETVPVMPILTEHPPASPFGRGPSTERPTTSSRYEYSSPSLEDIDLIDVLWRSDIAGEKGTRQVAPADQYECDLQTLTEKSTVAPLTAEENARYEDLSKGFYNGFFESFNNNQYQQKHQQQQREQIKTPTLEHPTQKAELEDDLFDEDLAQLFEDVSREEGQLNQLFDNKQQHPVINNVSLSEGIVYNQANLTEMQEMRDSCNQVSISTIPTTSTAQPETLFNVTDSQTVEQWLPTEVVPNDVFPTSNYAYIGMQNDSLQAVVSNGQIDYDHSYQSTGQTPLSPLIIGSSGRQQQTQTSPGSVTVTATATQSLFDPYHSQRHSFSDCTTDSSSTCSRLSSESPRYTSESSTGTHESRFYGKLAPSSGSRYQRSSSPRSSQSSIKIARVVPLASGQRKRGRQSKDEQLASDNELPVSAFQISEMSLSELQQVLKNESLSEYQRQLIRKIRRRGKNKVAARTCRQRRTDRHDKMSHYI

[5] = molecular target: T2, Histone-lysine N-methyltransferase NSD2 (Homo sapiens, UniProt O96028); type: biochemical
T2 sequence (O96028 whole entry): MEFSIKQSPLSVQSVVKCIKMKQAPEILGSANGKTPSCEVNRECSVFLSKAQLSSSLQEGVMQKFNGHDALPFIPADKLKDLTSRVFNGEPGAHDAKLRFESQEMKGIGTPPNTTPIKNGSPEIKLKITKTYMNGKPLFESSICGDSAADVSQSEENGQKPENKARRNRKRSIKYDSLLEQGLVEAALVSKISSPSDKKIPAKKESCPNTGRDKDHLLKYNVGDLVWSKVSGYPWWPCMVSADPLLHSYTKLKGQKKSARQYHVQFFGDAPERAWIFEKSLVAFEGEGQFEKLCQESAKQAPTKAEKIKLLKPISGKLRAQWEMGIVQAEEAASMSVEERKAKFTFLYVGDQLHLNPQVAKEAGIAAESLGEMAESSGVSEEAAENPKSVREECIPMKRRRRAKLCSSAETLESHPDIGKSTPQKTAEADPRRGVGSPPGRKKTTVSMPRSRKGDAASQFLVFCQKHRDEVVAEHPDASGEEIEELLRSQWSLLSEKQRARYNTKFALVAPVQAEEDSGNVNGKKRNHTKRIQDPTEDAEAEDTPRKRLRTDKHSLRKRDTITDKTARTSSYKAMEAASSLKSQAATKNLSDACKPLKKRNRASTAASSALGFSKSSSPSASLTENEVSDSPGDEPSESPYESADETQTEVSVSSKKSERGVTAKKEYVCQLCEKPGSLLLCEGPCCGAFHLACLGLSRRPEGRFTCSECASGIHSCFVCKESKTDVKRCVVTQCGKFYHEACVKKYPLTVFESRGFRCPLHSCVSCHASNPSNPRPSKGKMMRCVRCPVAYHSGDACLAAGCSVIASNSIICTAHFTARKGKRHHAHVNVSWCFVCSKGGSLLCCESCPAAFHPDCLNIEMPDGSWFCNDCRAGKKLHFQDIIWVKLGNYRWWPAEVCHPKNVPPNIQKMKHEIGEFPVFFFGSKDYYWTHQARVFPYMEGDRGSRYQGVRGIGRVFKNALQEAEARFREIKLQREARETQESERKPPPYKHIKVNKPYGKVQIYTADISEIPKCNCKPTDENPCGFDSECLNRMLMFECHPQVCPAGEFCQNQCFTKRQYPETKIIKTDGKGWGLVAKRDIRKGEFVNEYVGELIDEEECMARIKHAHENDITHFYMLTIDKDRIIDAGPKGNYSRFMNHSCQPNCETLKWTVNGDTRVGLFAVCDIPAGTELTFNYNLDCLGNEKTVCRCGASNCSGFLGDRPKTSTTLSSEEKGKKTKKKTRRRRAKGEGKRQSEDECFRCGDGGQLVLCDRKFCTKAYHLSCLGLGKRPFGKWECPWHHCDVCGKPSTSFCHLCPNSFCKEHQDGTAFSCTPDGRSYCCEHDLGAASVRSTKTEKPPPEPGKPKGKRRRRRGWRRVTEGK

[6] = viability loss in HeLa cells – cytotoxicity control for MgcRacGAP inhibitor project, dose response (AID 624300); type: functional
[7] = molecular target: T3, Polyadenylate-binding protein 1 (Homo sapiens, UniProt P11940); assay: MLLE domain peptide-binding blockers, IC50 – biochemical, fluorescence polarization, FITC-PAM2 peptide, dose response (AID 602259); type: functional; details: read-out: IC50_Mean
Paired box protein Pax-8 = Paired box protein Pax-8 (Homo sapiens, UniProt Q06710); assay: PAX8 transcriptional activity inhibition in RMG-I – RMG-I cells, luciferase, cherry-pick, dose response (AID 687027); type: functional, cell-based;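 further: luciferase reporter driven by Pax8 target thyroperoxidase promoter measured by SteadyGlo luminescence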
[8] = molecular target: T4, Rac GTPase-activating protein 1 (Homo sapiens, UniProt Q9H0H5); assay: blockers of MgcRacGAP-driven Rac1 GTP hydrolysis – biochemical, ADP Hunter fluorescence, primary and confirmatory, confirmation (AID 624330); type: functional
T4 sequence (Q9H0H5 whole entry): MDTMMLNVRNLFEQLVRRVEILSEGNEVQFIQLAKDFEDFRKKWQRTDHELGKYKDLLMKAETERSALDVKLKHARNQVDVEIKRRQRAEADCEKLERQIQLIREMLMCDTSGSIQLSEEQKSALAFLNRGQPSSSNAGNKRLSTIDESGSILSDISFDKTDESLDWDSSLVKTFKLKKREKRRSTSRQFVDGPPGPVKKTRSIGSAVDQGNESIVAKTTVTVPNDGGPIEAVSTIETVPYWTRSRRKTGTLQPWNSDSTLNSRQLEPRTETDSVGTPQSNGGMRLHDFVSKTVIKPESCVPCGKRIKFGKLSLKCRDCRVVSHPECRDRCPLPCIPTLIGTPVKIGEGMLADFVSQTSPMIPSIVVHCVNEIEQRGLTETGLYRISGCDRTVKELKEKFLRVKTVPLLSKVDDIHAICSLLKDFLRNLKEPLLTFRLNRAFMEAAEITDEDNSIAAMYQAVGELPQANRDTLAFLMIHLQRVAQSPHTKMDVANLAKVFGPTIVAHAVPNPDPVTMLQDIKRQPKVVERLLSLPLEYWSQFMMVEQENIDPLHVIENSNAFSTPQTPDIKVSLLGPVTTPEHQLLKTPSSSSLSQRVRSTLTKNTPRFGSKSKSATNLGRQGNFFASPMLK

Caspase-6 = molecular target: T5, Caspase-6 (Homo sapiens, UniProt P55212); assay: inhibition of CASP6 peptide cleavage – biochemical, VEID-R110 fluorescence, cherry-pick, dose response (AID 720632)
T5 sequence (P55212 whole entry): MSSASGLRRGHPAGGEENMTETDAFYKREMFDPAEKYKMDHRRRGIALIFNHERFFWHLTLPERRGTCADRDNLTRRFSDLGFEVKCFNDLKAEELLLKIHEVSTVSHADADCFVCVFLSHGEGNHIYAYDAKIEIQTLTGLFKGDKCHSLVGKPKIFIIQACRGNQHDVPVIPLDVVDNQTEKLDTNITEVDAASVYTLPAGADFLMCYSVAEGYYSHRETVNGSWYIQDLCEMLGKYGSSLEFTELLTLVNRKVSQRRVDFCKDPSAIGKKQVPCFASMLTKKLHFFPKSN

[9] = molecular target: T3, Polyadenylate-binding protein 1; assay: MLLE binding blockers, Cy5 peptide tracer – biochemical, fluorescence polarization, Cy5-PAM2 peptide, secondary, miRNA deadenylation inhibitor project, dose response (AID 602260); type: functional; details: read-out: IC50_Mean
[10] = molecular target: T6, Short transient receptor potential channel 4 (Mus musculus, UniProt Q9QUQ5); assay: mouse TRPC4 block via Gq-coupled stimulation – cell-based, acetylcholine stimulus, HEK293 TRPC4, Fluo-4, SAR follow-up (AID 492996); type: functional
T6 sequence (Q9QUQ5 whole entry): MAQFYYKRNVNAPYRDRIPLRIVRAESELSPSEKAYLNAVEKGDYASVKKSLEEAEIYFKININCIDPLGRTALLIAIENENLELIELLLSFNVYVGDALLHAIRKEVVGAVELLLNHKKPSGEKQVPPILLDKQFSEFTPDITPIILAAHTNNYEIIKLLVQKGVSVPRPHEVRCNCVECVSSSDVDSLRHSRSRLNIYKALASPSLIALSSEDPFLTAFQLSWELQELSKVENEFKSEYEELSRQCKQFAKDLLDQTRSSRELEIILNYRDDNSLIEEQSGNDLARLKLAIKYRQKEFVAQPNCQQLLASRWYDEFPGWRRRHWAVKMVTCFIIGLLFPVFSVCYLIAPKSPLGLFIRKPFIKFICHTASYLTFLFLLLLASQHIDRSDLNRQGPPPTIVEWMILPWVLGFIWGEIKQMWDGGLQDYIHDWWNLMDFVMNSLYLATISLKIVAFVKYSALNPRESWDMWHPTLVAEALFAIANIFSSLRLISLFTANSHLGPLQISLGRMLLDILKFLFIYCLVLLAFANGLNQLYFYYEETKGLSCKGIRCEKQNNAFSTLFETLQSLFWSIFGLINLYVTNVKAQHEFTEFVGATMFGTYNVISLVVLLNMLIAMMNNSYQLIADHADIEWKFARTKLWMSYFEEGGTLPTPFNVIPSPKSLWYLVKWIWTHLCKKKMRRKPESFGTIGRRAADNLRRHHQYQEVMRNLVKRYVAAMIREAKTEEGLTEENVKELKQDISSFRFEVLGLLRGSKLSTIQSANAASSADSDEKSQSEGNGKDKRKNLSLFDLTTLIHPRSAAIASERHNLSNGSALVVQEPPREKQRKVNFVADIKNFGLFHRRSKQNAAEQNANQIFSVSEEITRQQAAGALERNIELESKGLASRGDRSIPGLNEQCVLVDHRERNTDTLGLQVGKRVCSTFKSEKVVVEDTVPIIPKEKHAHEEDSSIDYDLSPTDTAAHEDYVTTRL

[11] = molecular target: Short transient receptor potential channel 6 (Mus musculus, UniProt Q61143); assay: mouse TRPC6 channel blockers, concentration series – HEK293 cells, membrane potential dye, IC50, selectivity assay for selective TRPC4 inhibitor project, dose response (AID 492987); type: functional, cell-based
[12] = molecular target: T6, Short transient receptor potential channel 4; assay: SAR Analysis for the identification of selective inhibits of the transient receptor potential cation channel C4 (TRPC4): Automated Electrophysiology_2. [Related pubchem assays (depositor defined):AID2256]; type: functional
[13] = molecular target: T6, Short transient receptor potential channel 4; assay: potency of mouse TRPC4 calcium flux blockers – cell-based, HEK293 TRPC4/mu-opioid, DAMGO stimulus, Fluo-4, dose response (AID 492994); type: functional
[14] = molecular target: T6, Short transient receptor potential channel 4; assay: SAR Analysis for the identification of selective inhibitors of the transient receptor potential cation channel C4 (TRPC4): TRPC4 Serotonin Receptor CRC MPD assay. [Related pubchem assays (depositor defined):AID2247, AID2256]; type: functional
[15] = molecular target: Voltage-gated inwardly rectifying potassium channel KCNH2 (Homo sapiens, UniProt Q12809); details: Potency;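 further: confirmatory quantitative high-throughput screen measuring inhibition of hERG channel activity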

With `O=c1oc2ccccc2c(O)c1[C@H]1c2ccc(O)cc2Oc2c1c(=O)oc1ccccc21` the IC50 (Genome polyprotein) was 80.7 µM (active), the IC50 (cells) was 124 µM (inactive) and the IC50 (Major prion protein) was 9.01 µM (active). The IC50 [1] was 117 µM (active), the IC50 (Vero [2]) was > 25 µM (active) and the CC50 (Vero [3]) was > 25 µM (active). For the same compound, the CC50 (Vero [4]) was > 40 µM (active).
In the case of `O=C1C(Br)=C(N2CCN(CCOCCO)CC2)C(=O)c2c(O)ccc(O)c21`, the IC50 (Genome polyprotein) is reported as 5.11 µM (active), the IC50 (Beta-arrestin-1) is reported as 7.46 µM (active) and the IC50 (Protein skinhead-1) is reported as 79.6 µM (inactive). The AC50 [5] was 7.21 µM (active), the CC50 [6] was 12.6 µM (active) and the IC50 [7] was 38.7 µM (inactive). The AC50 (Paired box protein Pax-8) was 7.03 µM (active), the IC50 [8] was 34.8 µM (active) and the AC50 (Caspase-6) was 0.343 µM (active). The IC50 [9] was > 66 µM (inactive) and the CC50 (Vero [4]) was 8.58 µM (active).
For `Cc1cc(N2CCCC2)nc2ccc(F)cc12`, the IC50 [10] was 17.4 µM (active), the IC50 [11] was 7.76 µM (active) and the IC50 [12] was 3.94 µM (active). For the same compound, the IC50 [13] was 0.93 µM (active) and the IC50 [14] was 1.41 µM (active).
For `C=CCN1CC[C@]23c4c5ccc(O)c4O[C@@H]2/C(=N/N=C2\CC[C@@]4(O)C6Cc7ccc(O)c8c7[C@@]4(CCN6CC=C)[C@@H]2O8)CC[C@@]3(O)C1C5`, the AC50 [15] was 20 µM (inconclusive).

Reference: ChEMBL document CHEMBL1201862, “PubChem BioAssay data set” (2004)
